Experimental data: patent publication US9512144B2, “Imidazothiazole sufonamides as nematicides” (BAYER CROPSCIENCE AKTIENGESELLSCHAFT, priority 2013, dated 2016)

Each compound was assayed on Meloidogyne incognita (assay: Meloidogyne incognita test (MELGIN): sand, salad seeds, gall formation after 14 days). Details: application rate 20 ppm, salad seedlings in sand.
Assay type: in vivo
Procedure: Solvent: 125.0 parts by weight of acetone To produce a suitable preparation of active compound, 1 part by weight of active compound is mixed with the stated amount of solvent, and the concentrate is diluted with water to the desired concentration. Vessels are filled with sand, a solution of the active ingredient, a suspension containing eggs and larvae of the southern root-knot nematode (Meloidogyne incognita) and salad seeds. The salad seeds germinate and the seedlings grow. Galls develop in the roots. After 14 days the nematicidal activity is determined on the basis of the percentage of gall formation. 100% means that no galls were found; 0% means that the number of galls found on the roots of the treated plants was equal to that in untreated control plants.
In the case of `Cc1c(C(F)(F)F)sc2nc(C(=O)NS(=O)(=O)c3cccc(Cl)c3)cn12` [Example I-1-155], the “nematicidal activity on the basis of the percentage of gall formation (100% = no galls)” value is reported as 100%. For `O=C(NS(=O)(=O)c1cccc(Cl)c1)c1cn2cc(Cl)sc2n1` [Example I-1-50], the “nematicidal activity on the basis of the percentage of gall formation (100% = no galls)” value was 100%. In the case of `O=C(NS(=O)(=O)c1cccc(Cl)c1)c1cn2cc(C(F)(F)C(F)(F)F)sc2n1` [Example I-1-143], the “nematicidal activity on the basis of the percentage of gall formation (100% = no galls)” value is reported as 90%. In the case of `O=C(NS(=O)(=O)c1ccc(Cl)cc1Cl)c1cn2cc(C(F)(F)C(F)(F)F)sc2n1` [Example I-1-224], the “nematicidal activity on the basis of the percentage of gall formation (100% = no galls)” value is reported as 100%. For `Cc1cc(S(=O)(=O)NC(=O)c2cn3cc(Cl)sc3n2)c(C)cc1C#N` [Example I-1-45], the “nematicidal activity on the basis of the percentage of gall formation (100% = no galls)” value was 100%. In the case of `O=C(NS(=O)(=O)c1ccc(Br)c(Cn2cccn2)c1)c1cn2cc(C(F)(F)F)sc2n1` [Example I-1-275], the “nematicidal activity on the basis of the percentage of gall formation (100% = no galls)” value is reported as 90%. `CC(C)(C)c1cn2cc(C(=O)NS(=O)(=O)c3c(Cl)cccc3Cl)nc2s1` [Example I-1-13] was tested, and the “nematicidal activity on the basis of the percentage of gall formation (100% = no galls)” value was 100%. With `O=C(NS(=O)(=O)c1ccccc1Cl)c1nc2sc(C(F)(F)F)cn2c1I` [Example I-3-5] the “nematicidal activity on the basis of the percentage of gall formation (100% = no galls)” value was 100%. With `Cc1ccc(C)c(S(=O)(=O)NC(=O)c2cn3c(C(F)(F)F)csc3n2)c1` [Example I-1-270] the “nematicidal activity on the basis of the percentage of gall formation (100% = no galls)” value was 100%. `CC(C)(C)c1cn2cc(C(=O)NS(=O)(=O)c3ccccc3Cl)nc2s1` [Example I-1-16] was tested, and the “nematicidal activity on the basis of the percentage of gall formation (100% = no galls)” value was 100%. In the case of `Cc1ccc(Cl)cc1S(=O)(=O)NC(=O)c1cn2c(C)c(C(F)(F)F)sc2n1` [Example I-1-290], the “nematicidal activity on the basis of the percentage of gall formation (100% = no galls)” value is reported as 100%. With `CC(C)(C)c1cn2cc(C(=O)NS(=O)(=O)c3cc(Cl)ccc3Cl)nc2s1` [Example I-1-15] the “nematicidal activity on the basis of the percentage of gall formation (100% = no galls)” value was 100%. For `Cc1ccc(C(C)(C)C)cc1S(=O)(=O)NC(=O)c1cn2cc(C(F)(F)C(F)(F)F)sc2n1` [Example I-1-233], the “nematicidal activity on the basis of the percentage of gall formation (100% = no galls)” value was 100%. For `CCCOc1ccc(Cl)c(S(=O)(=O)NC(=O)c2cn3cc(C(F)(F)C(F)(F)F)sc3n2)c1` [Example I-1-238], the “nematicidal activity on the basis of the percentage of gall formation (100% = no galls)” value was 100%. For `Cc1cc(S(=O)(=O)NC(=O)c2cn3cc(C(F)(F)F)sc3n2)c(C)cc1Br` [Example I-1-14], the “nematicidal activity on the basis of the percentage of gall formation (100% = no galls)” value was 100%. With `CCc1ccc(CC)c(S(=O)(=O)NC(=O)c2cn3cc(C(F)(F)F)sc3n2)c1` [Example I-1-305] the “nematicidal activity on the basis of the percentage of gall formation (100% = no galls)” value was 100%. `CC(=O)c1ccc(Cl)c(S(=O)(=O)NC(=O)c2cn3cc(C(F)(F)F)sc3n2)c1` [Example I-1-301] was tested, and the “nematicidal activity on the basis of the percentage of gall formation (100% = no galls)” value was 100%. `O=C(NS(=O)(=O)c1cc(Br)ccc1Br)c1cn2cc(C(F)(F)F)sc2n1` [Example I-1-312] was tested, and the “nematicidal activity on the basis of the percentage of gall formation (100% = no galls)” value was 100%. In the case of `CSc1cn2cc(C(=O)NS(=O)(=O)c3cc(C(F)(F)F)ccc3Cl)nc2s1` [Example I-1-296], the “nematicidal activity on the basis of the percentage of gall formation (100% = no galls)” value is reported as 100%. For `O=C(NS(=O)(=O)c1ccc(Br)c(Cn2cccn2)c1)c1cn2cc(C(F)(F)C(F)(F)F)sc2n1` [Example I-1-293], the “nematicidal activity on the basis of the percentage of gall formation (100% = no galls)” value was 100%. For `O=C(NS(=O)(=O)c1c(F)cccc1F)c1cn2cc(C(F)(F)F)sc2n1` [Example I-1-11], the “nematicidal activity on the basis of the percentage of gall formation (100% = no galls)” value was 100%. In the case of `O=C(NS(=O)(=O)c1cc(Cl)ccc1Cl)c1cn2cc(C(F)(F)F)sc2n1` [Example I-1-6], the “nematicidal activity on the basis of the percentage of gall formation (100% = no galls)” value is reported as 100%. `O=C(NS(=O)(=O)c1ccccc1OC(F)(F)F)c1cn2cc(C(F)(F)C(F)(F)F)sc2n1` [Example I-1-234] was tested, and the “nematicidal activity on the basis of the percentage of gall formation (100% = no galls)” value was 100%. For `Cc1ccc(Cn2cccn2)cc1S(=O)(=O)NC(=O)c1cn2cc(C(F)(F)F)sc2n1` [Example I-1-288], the “nematicidal activity on the basis of the percentage of gall formation (100% = no galls)” value was 90%. For `O=C(NS(=O)(=O)c1ccc(Cl)cc1Cl)c1cn2cc(C(F)(F)F)sc2n1` [Example I-1-279], the “nematicidal activity on the basis of the percentage of gall formation (100% = no galls)” value was 90%. `COc1ccc(Cl)c(S(=O)(=O)NC(=O)c2cn3cc(SC)sc3n2)c1` [Example I-1-299] was tested, and the “nematicidal activity on the basis of the percentage of gall formation (100% = no galls)” value was 90%. For `COc1ccccc1S(=O)(=O)NC(=O)c1cn2cc(C(F)(F)C(F)(F)F)sc2n1` [Example I-1-248], the “nematicidal activity on the basis of the percentage of gall formation (100% = no galls)” value was 100%. For `Cc1ccc(OC(F)F)c(S(=O)(=O)NC(=O)c2cn3cc(C(F)(F)F)sc3n2)c1` [Example I-1-314], the “nematicidal activity on the basis of the percentage of gall formation (100% = no galls)” value was 90%. With `COc1ccc(Cl)c(S(=O)(=O)NC(=O)c2cn3c(C(F)(F)F)csc3n2)c1` [Example I-1-29] the “nematicidal activity on the basis of the percentage of gall formation (100% = no galls)” value was 90%. In the case of `Cc1ccc(Cn2cccn2)cc1S(=O)(=O)NC(=O)c1cn2cc(C(F)(F)C(F)(F)F)sc2n1` [Example I-1-295], the “nematicidal activity on the basis of the percentage of gall formation (100% = no galls)” value is reported as 90%. For `O=C(NS(=O)(=O)c1ccccc1Cl)c1nc2sc(C(F)(F)F)cn2c1Br` [Example I-3-1], the “nematicidal activity on the basis of the percentage of gall formation (100% = no galls)” value was 100%. `COc1ccc(Cl)c(S(=O)(=O)NC(=O)c2cn3cc(Br)sc3n2)c1` [Example I-1-60] was tested, and the “nematicidal activity on the basis of the percentage of gall formation (100% = no galls)” value was 100%. `O=C(NS(=O)(=O)c1cc(Cl)ccc1Cl)c1cn2cc(C(F)(F)C(F)(F)F)sc2n1` [Example I-1-145] was tested, and the “nematicidal activity on the basis of the percentage of gall formation (100% = no galls)” value was 100%. `O=C(NS(=O)(=O)c1cccc(Cl)c1)c1cn2cc(C(F)(F)F)sc2n1` [Example I-1-272] was tested, and the “nematicidal activity on the basis of the percentage of gall formation (100% = no galls)” value was 90%. With `Cc1c(C(F)(F)F)sc2nc(C(=O)NS(=O)(=O)c3ccc(Cl)cc3)cn12` [Example I-1-156] the “nematicidal activity on the basis of the percentage of gall formation (100% = no galls)” value was 90%. With `O=C(NS(=O)(=O)c1ccccc1-c1ccccc1)c1cn2cc(C(F)(F)C(F)(F)F)sc2n1` [Example I-1-235] the “nematicidal activity on the basis of the percentage of gall formation (100% = no galls)” value was 100%. With `CSc1cn2cc(C(=O)NS(=O)(=O)c3ccccc3Cl)nc2s1` [Example I-1-298] the “nematicidal activity on the basis of the percentage of gall formation (100% = no galls)” value was 100%. For `CSc1cn2cc(C(=O)NS(=O)(=O)c3c(Cl)cccc3Cl)nc2s1` [Example I-1-300], the “nematicidal activity on the basis of the percentage of gall formation (100% = no galls)” value was 100%. `O=C(NS(=O)(=O)c1cccc(Cl)c1Cl)c1cn2cc(C(F)(F)C(F)(F)F)sc2n1` [Example I-1-236] was tested, and the “nematicidal activity on the basis of the percentage of gall formation (100% = no galls)” value was 100%. `O=C(NS(=O)(=O)c1cc(Cn2cccn2)ccc1Cl)c1cn2cc(C(F)(F)C(F)(F)F)sc2n1` [Example I-1-292] was tested, and the “nematicidal activity on the basis of the percentage of gall formation (100% = no galls)” value was 100%. In the case of `CSc1ccc(Cl)c(S(=O)(=O)NC(=O)c2cn3cc(C(F)(F)F)sc3n2)c1` [Example I-1-308], the “nematicidal activity on the basis of the percentage of gall formation (100% = no galls)” value is reported as 100%. For `COc1ccc(Cl)c(S(=O)(=O)NC(=O)c2cn3cc(C(C)(C)C)sc3n2)c1` [Example I-1-23], the “nematicidal activity on the basis of the percentage of gall formation (100% = no galls)” value was 100%. In the case of `CSc1cn2cc(C(=O)NS(=O)(=O)c3cc(Cl)ccc3Cl)nc2s1` [Example I-1-297], the “nematicidal activity on the basis of the percentage of gall formation (100% = no galls)” value is reported as 90%. In the case of `COc1ccc(Cl)c(S(=O)(=O)NC(=O)c2cn3cc(Cl)sc3n2)c1` [Example I-1-19], the “nematicidal activity on the basis of the percentage of gall formation (100% = no galls)” value is reported as 100%. `COc1ccc(Cl)c(S(=O)(=O)NC(=O)c2nc3sc(C(F)(F)F)cn3c2Br)c1` [Example I-3-2] was tested, and the “nematicidal activity on the basis of the percentage of gall formation (100% = no galls)” value was 100%. In the case of `O=C(NS(=O)(=O)c1cc(C(F)(F)F)ccc1Cl)c1cn2cc(Cl)sc2n1` [Example I-1-21], the “nematicidal activity on the basis of the percentage of gall formation (100% = no galls)” value is reported as 100%. In the case of `Cc1ccc(OC(F)F)cc1S(=O)(=O)NC(=O)c1cn2cc(C(F)(F)F)sc2n1` [Example I-1-7], the “nematicidal activity on the basis of the percentage of gall formation (100% = no galls)” value is reported as 90%. With `O=C(NS(=O)(=O)c1ccccc1OC(F)(F)F)c1cn2cc(C(F)(F)F)sc2n1` [Example I-1-281] the “nematicidal activity on the basis of the percentage of gall formation (100% = no galls)” value was 90%. `O=C(NS(=O)(=O)c1ccccc1Cl)c1cn2cc(Cl)sc2n1` [Example I-1-17] was tested, and the “nematicidal activity on the basis of the percentage of gall formation (100% = no galls)” value was 100%. For `CCc1ccc(Cl)cc1S(=O)(=O)NC(=O)c1cn2cc(C(F)(F)F)sc2n1` [Example I-1-309], the “nematicidal activity on the basis of the percentage of gall formation (100% = no galls)” value was 100%. `Cc1ccc(C)c(S(=O)(=O)NC(=O)c2cn3cc(Cl)sc3n2)c1` [Example I-1-22] was tested, and the “nematicidal activity on the basis of the percentage of gall formation (100% = no galls)” value was 100%. For `O=C(NS(=O)(=O)c1ccc(Cl)cc1)c1cn2cc(Cl)sc2n1` [Example I-1-51], the “nematicidal activity on the basis of the percentage of gall formation (100% = no galls)” value was 100%. `O=C(NS(=O)(=O)c1cc(Cl)ccc1Cl)c1cn2cc(Cl)sc2n1` [Example I-1-18] was tested, and the “nematicidal activity on the basis of the percentage of gall formation (100% = no galls)” value was 90%. For `N#Cc1ccc(Cl)c(S(=O)(=O)NC(=O)c2cn3cc(C(F)(F)F)sc3n2)c1` [Example I-1-310], the “nematicidal activity on the basis of the percentage of gall formation (100% = no galls)” value was 90%.
